Test results published in BindingDB's records for doi:10.1021/jm00356a028 (1983).

Test: Inhibition of HSV-1 DNA polymerase in HSV-1 C42 plaque reduction assay

Structure (SMILES)	IC50 [µM]
COP(=O)(OC)C(=O)OC1CCCCC1 [cyclohexyl dimethoxyphosphinecarboxylate oxide]	> 500
CCOP(=O)(O)C(=O)O [disodium ethoxy(oxido)phosphinecarboxylate oxide]	> 500
COP(=O)(OC)C(=O)Oc1ccc(Cl)c(Cl)c1 [3,4-dichlorophenyl dimethoxyphosphinecarboxylate oxide]	> 500
O=C(Oc1ccccc1)P(=O)(O)O [disodium phenoxycarbonylphosphonate]	> 500
CCOP(=O)(Oc1ccc2c(c1)CCC2)C(=O)OC (stereo not given) [methyl (2,3-dihydro-1H-inden-5-yloxy)(ethoxy)phosphinecarboxylate oxide]	> 500
CCOC(=O)c1ccc(OC(=O)P(=O)(O)O)cc1 [disodium [4-(ethoxycarbonyl)phenoxy]carbonylphosphonate]	> 500
Cc1ccc(OC(=O)P(=O)(O)O)cc1 [disodium (4-methylphenoxy)carbonylphosphonate]	> 500
CCOP(=O)(O)C(=O)Oc1ccc(Cl)cc1 [sodium ethyl (4-chlorophenoxy)carbonylphosphonate]	500
COC(=O)P(=O)(O)Oc1c(C)cccc1C [sodium 2,6-dimethylphenyl methoxycarbonylphosphonate]	> 500
O=C(OCC1CCCC1)P(=O)(O)O [disodium (cyclopentylmethoxy)carbonylphosphonate]	> 500
CCOP(=O)(Oc1ccc(C(C)=O)cc1)C(=O)OC (stereo not given) [methyl (4-acetylphenoxy)(ethoxy)phosphinecarboxylate oxide]	> 500
CCOP(=O)(OCC)C(=O)Oc1ccc(OC)cc1 [4-methoxyphenyl diethoxyphosphinecarboxylate oxide]	> 500
O=C(O)P(=O)(O)Oc1ccccc1 [disodium oxido(phenoxy)phosphinecarboxylate oxide]	79
COc1ccc(OC(=O)P(=O)(O)O)cc1 [disodium (4-methoxyphenoxy)carbonylphosphonate]	> 500
Cc1ccc(OP(=O)(O)C(=O)Oc2ccccc2)cc1 [sodium 4-methylphenyl phenoxycarbonylphosphonate]	54
COP(=O)(O)C(=O)Oc1ccccc1 [sodium methyl phenoxycarbonylphosphonate]	> 500
O=C(O)P(=O)(O)Oc1ccc2c(c1)CCC2 [disodium (2,3-dihydro-1H-inden-5-yloxy)(oxido)phosphinecarboxylate oxide]	73
CCOC(=O)c1ccc(OC(=O)P(=O)(OC)OC)cc1 [4-(ethoxycarbonyl)phenyl dimethoxyphosphinecarboxylate oxide]	> 500
CCOC(=O)P(=O)(O)O [disodium ethoxycarbonylphosphonate]	> 500
O=C(OC1CCCCC1)P(=O)(O)O [disodium (cyclohexyloxy)carbonylphosphonate]	> 500
CCOP(=O)(Oc1ccc(OC)cc1)C(=O)Oc1ccccc1 (stereo not given) [phenyl (4-methoxyphenoxy)(ethoxy)phosphinecarboxylate oxide]	97
COP(=O)(O)C(=O)O [disodium methoxy(oxido)phosphinecarboxylate oxide]	> 500
Cc1ccc(OP(=O)(O)C(=O)O)cc1 [disodium (4-methylphenoxy)(oxido)phosphinecarboxylate oxide]	87
COP(=O)(O)C(=O)OCc1ccccc1 [sodium methyl (benzyloxy)carbonylphosphonate]	> 500
O=C(O)P(=O)(O)OC12CC3CC(CC(C3)C1)C2 [disodium (1-adamantyloxy)(oxido)phosphinecarboxylate oxide]	> 500
O=C(Oc1ccc(Cl)cc1)P(=O)(O)O [disodium (4-chlorophenoxy)carbonylphosphonate]	250
O=C(O)P(=O)(O)O	74
O=C(OCc1ccccc1)P(=O)(O)O [disodium (benzyloxy)carbonylphosphonate]	> 500

Structure (SMILES)	IC50 [µM]
CC(C)OP(=O)(OC(C)C)C(=O)Oc1ccc([N+](=O)[O-])cc1 [4-nitrophenyl diisopropoxyphosphinecarboxylate oxide]	> 500
COc1ccc(OP(=O)(O)C(=O)O)cc1 [disodium (4-methoxyphenoxy)(oxido)phosphinecarboxylate oxide]	90
CCCCOP(=O)(O)C(=O)OC [sodium butyl methoxycarbonylphosphonate]	> 500
CCCCOP(=O)(OCCCC)C(=O)OC [methyl dibutoxyphosphinecarboxylate oxide]	> 500
CCOP(=O)(O)C(=O)Oc1ccc(OC)cc1 [sodium ethyl (4-methoxyphenoxy)carbonylphosphonate]	165
CCOC(=O)c1ccc(OC(=O)P(=O)(OCC)OCC)cc1 [4-(ethoxycarbonyl)phenyl diethoxyphosphinecarboxylate oxide]	> 500
COP(=O)(OC)C(=O)OCc1ccccc1 [benzyl dimethoxyphosphinecarboxylate oxide]	> 500
COP(=O)(OC)C(=O)OC(C)C [isopropyl dimethoxyphosphinecarboxylate oxide]	> 500
COC(=O)P(=O)(OC)Oc1ccc(C(C)=O)cc1 (stereo not given) [methyl (4-acetylphenoxy)(methoxy)phosphinecarboxylate oxide]	> 500
CCOC(=O)P(=O)(O)OCC [sodium ethyl ethoxycarbonylphosphonate]	> 500
CCOP(=O)(OCC)C(=O)Oc1ccc(Cl)cc1 [4-chlorophenyl diethoxyphosphinecarboxylate oxide]	> 500
CCOC(=O)P(=O)(O)Oc1ccccc1 [sodium phenyl ethoxycarbonylphosphonate]	> 500
Cc1ccc(OP(=O)(Oc2ccc(C)cc2)C(=O)Oc2ccccc2)cc1 [phenyl bis(4-methylphenoxy)phosphinecarboxylate oxide]	44
O=C(Oc1ccccc1)P(=O)(O)Oc1ccccc1 [sodium phenyl phenoxycarbonylphosphonate]	52
COC(=O)P(=O)(OC(C)C)OC(C)C [methyl diisopropoxyphosphinecarboxylate oxide]	> 500
CC(C)OC(=O)P(=O)(O)O [disodium isopropoxycarbonylphosphonate]	> 500
COP(=O)(OC)C(=O)Oc1ccc([N+](=O)[O-])cc1 [4-nitrophenyl dimethoxyphosphinecarboxylate oxide]	> 500
COC(=O)P(=O)(O)Oc1ccc2c(c1)CCC2 [sodium 2,3-dihydro-1H-inden-5-yl methoxycarbonylphosphonate]	> 500
Cc1cccc(C)c1OP(=O)(O)C(=O)O [disodium (2,6-dimethylphenoxy)(oxido)phosphinecarboxylate oxide]	> 500
COC(=O)P(=O)(OC)OC12CC3CC(CC(C3)C1)C2 (stereo not given) [methyl (1-adamantyloxy)(methoxy)phosphinecarboxylate oxide]	> 500
COP(=O)(OC)C(=O)OCC1CCCC1 [cyclopentylmethyl dimethoxyphosphinecarboxylate oxide]	> 500
CCCCOC(=O)P(=O)(OC)OC [butyl dimethoxyphosphinecarboxylate oxide]	> 500
O=C(Oc1ccccc1)P(=O)(Oc1ccccc1)Oc1ccccc1 [phenyl diphenoxyphosphinecarboxylate oxide]	39
CCOP(=O)(Oc1c(C)cccc1C)C(=O)OC (stereo not given) [methyl (2,6-dimethylphenoxy)(ethoxy)phosphinecarboxylate oxide]	> 500
COP(=O)(OC)C(=O)Oc1ccc(C)cc1 [4-methylphenyl dimethoxyphosphinecarboxylate oxide]	> 500
CCCCOC(=O)P(=O)(O)O [disodium butoxycarbonylphosphonate]	> 500
COP(=O)(OC)C(=O)Oc1ccccc1 [phenyl dimethoxyphosphinecarboxylate oxide]	> 500
